Legend:
[1] = system: eye; assay: Maximum reduction of intraocular pressure in cats after topical application; format: in vivo; conditions: for Intraocular pressure, Exp Eye / Maximum reduction of intraocular pressure, Difference (Exp Eye vs Cont Eye): 1-3 hours after application, mean ± SEM, n = 6
Experimental: (§1) Experiments were performed in cats and rabbits. The test compounds were administered topically to the eye. The compounds were tested by using a single dose of each concentration. The intraocular pressure in cats was measured with a pneumotonometer (Digilab Modular One, BioRad). Before the measurement the cornea was anaesthetized with 1-2 drops of oxibuprocain. The ocular irritation (discomfort) caused by the test compounds was assessed without anaesthesia in the same animals. The irritation was graded on an arbitrary scale 0-3, 0 indicating absence of irritation, and 3 indicating maximum irritation as obvious from complete lid closure. Surface hyperemia of the eye (redness of the eye) was evaluated in rabbits. The eye was photographed at regular intervals and the degree of hyperemia was evaluated from the color photographs in a masked way. The hyperemia was evaluated on an arbitrary scale 0-5, 0 indicating absence of hyperemia and 5 marked hyperemia and conjunctival chemosis. All compounds were formulated in physiologic saline using polysorbate 80 as solubilizer. The same volume of the vehicle only was applied topically on the contralateral control eye.
Maximum reduction of intraocular pressure in cats 1-3 hours after
application of different thioprostaglandin compounds (Mean ± SEM; n =

[2] = system: eye; assay: Ocular irritation (discomfort) after topical application, scale 0-3; format: in vivo, cats; conditions: for Maximum ocular irritation, Difference (experimental vs contralateral control eye): cats, topical, mean ± SEM, n = 6; for Ocular irritation grade (maximum irritation): same test system
Experimental: as §1
Maximum ocular irritation after topical
application of different thioprostaglandin compounds in
cats. The values represent the difference between the
experimental and contralateral control eyes (Mean ± SEM,

[3] = system: rat gastric fundus; assay: In vitro bioassay, rat gastric fundus
Description: (§2) In vitro bioassay studies of thioprostaglandins according to this invention have shown that such thioprostaglandins exert biological effects on several mammalian tissues and organ systems. […] These biological effects have no known relationship to the IOP lowering effects of these prostaglandins.

[4] = system: cat iris sphincter; assay: In vitro bioassay, cat iris sphincter
Description: as §2

[5] = system: bovine iris sphincter; assay: In vitro bioassay, bovine iris sphincter
Description: as §2

[6] = system: circular preparation of the guinea pig ileum; assay: In vitro bioassay, guinea pig ileum circular preparation
Description: as §2

[7] = system: platelet aggregation; assay: In vitro bioassay, platelet aggregation; format: cell-based
Description: as §2

[8] = system: eye; assay: Surface hyperemia of the eye after topical application, scale 0-5; format: in vivo, rabbits; conditions: 0.5 μg; for Maximum surface hyperemia of the eye, Difference (Exp Eye vs Cont Eye) / Maximum surface hyperemia of the eye, Exp Eye: rabbits, topical, mean ± SEM, n = 6; for Ocular surface hyperemia grade: same test system
Experimental: as §1
Maximum surface hyperemia of the eye after
topical application of different thioprostaglandins in
rabbits. (Mean ± SEM, n = 6).

| Compound | Intraocular pressure, Exp Eye ([1]; 3 ug) [mmHg] | Maximum reduction of intraocular pressure, Difference (Exp Eye vs Cont Eye) ([1]; 3 ug) [mmHg] | Maximum ocular irritation, Difference (experimental vs contralateral control eye) ([2]; 3 μg) | Intraocular pressure, Exp Eye ([1]; 1 ug) [mmHg] | Maximum reduction of intraocular pressure, Difference (Exp Eye vs Cont Eye) ([1]; 1 ug) [mmHg] | Maximum ocular irritation, Difference (experimental vs contralateral control eye) ([2]; 1 μg) | Maximum surface hyperemia of the eye, Difference (Exp Eye vs Cont Eye) [8] | Maximum surface hyperemia of the eye, Exp Eye [8] | also measured |
| --- | --- | --- | --- | --- | --- | --- | --- | --- | --- |
| CCCCC[C@H](O)/C=C/[C@H]1C(SCc2ccccc2)CC(=O)[C@@H]1C/C=C\CCCC(=O)OCc1ccccc1 (some centres unmarked) [Compound 3, 11-deoxy-11-thiobenzyl-PGE2 benzyl ester] | 14.7 ± -0.7 | -3.7 ± -1.3 | 0.08 ± -0.08 |  |  |  |  |  | Intraocular pressure, Exp Eye ([1]; 5 ug): 13.0 ± -0.4 mmHg; Maximum reduction of intraocular pressure, Difference (Exp Eye vs Cont Eye) ([1]; 5 ug): -3.8 ± -0.5 mmHg; 24 hour reduction of the intraocular pressure (in words) ([1]; 24 hour): Except for compound 3, all compounds caused 24 hour reduction of the intraocular pressure; Maximum ocular irritation, Difference (experimental vs contralateral control eye) ([2]; 5 μg): 1.33 ± -0.1; Stimulation of the rat gastric fundus [3]: stimulate; Stimulation of the cat iris sphincter [4]: stimulate; Stimulation of the bovine iris sphincter [5]: stimulate; Stimulation of the circular preparation of the guinea pig ileum [6]: stimulate; Effect on platelet aggregation [7]: affect platelet aggregation |
| CCCCC[C@H](O)/C=C/[C@H]1C(SCC(N)C(=O)OCC)CC(=O)[C@@H]1C/C=C\CCCC(=O)OCc1ccccc1 (some centres unmarked) [Compound 4] | 16.3 ± -0.7 | -4.3 ± -1.6 | 0.75 ± -0.1 |  |  |  |  |  | Intraocular pressure, Exp Eye ([1]; 10 ug): 14.0 ± -0.7 mmHg; Maximum reduction of intraocular pressure, Difference (Exp Eye vs Cont Eye) ([1]; 10 ug): -5.8 ± -1.1 mmHg; Maximum ocular irritation, Difference (experimental vs contralateral control eye) ([2]; 10 μg): 0.58 ± -0.08; Stimulation of the rat gastric fundus [3]: stimulate; Stimulation of the cat iris sphincter [4]: stimulate; Stimulation of the bovine iris sphincter [5]: stimulate; Stimulation of the circular preparation of the guinea pig ileum [6]: stimulate; Effect on platelet aggregation [7]: affect platelet aggregation |
| CCCCC[C@H](O)/C=C/[C@H]1C(SCCC(=O)OCC)CC(=O)[C@@H]1C/C=C\CCCC(=O)OC (some centres unmarked) [Compound 5, 11-Deoxy-11-[3-thio-(1-ethylpropionate)] PGE2 methyl ester] | 11.5 ± -1.6 | -9.2 ± -1.2 | 0.58 ± -0.08 | 12.7 ± -1.0 | -9.5 ± -0.8 | 1.08 ± -0.2 | 0.3 ± -0.2 | 1.1 ± -0.2 | Reduction of intraocular pressure (in words) [1]: The strongest effect; Reduction of intraocular pressure at low dose (in words) ([1]; 1 μg): markedly reduced the pressure; Intraocular pressure, Exp Eye ([1]; 10 ug): 12.3 ± -1.3 mmHg; Maximum reduction of intraocular pressure, Difference (Exp Eye vs Cont Eye) ([1]; 10 ug): -10.0 ± -0.9 mmHg; Maximum ocular irritation, Difference (experimental vs contralateral control eye) ([2]; 10 μg): 2.00 ± -0.1 |
| CCCCC[C@H](O)/C=C/[C@H]1C(SCCO)CC(=O)[C@@H]1C/C=C\CCCC(=O)OC (some centres unmarked) [Compound 6, 11-Deoxy-11-(thio-1-ethanol)-PGE2 methyl ester] | 13.8 ± -0.9 | -6.0 ± -1.3 | 0.67 ± -0.1 | 14.7 ± -1.0 | -5.8 ± -1.0 | 0.92 ± -0.08 | 0.8 ± -0.1 | 1.7 ± -0.1 |  |
| CCCCC[C@H](O)/C=C/[C@H]1C(Sc2ccccc2C(=O)OC)CC(=O)[C@@H]1C/C=C\CCCC(=O)OC (some centres unmarked) [Compound 7, 11-Deoxy-11-[thio-2-(methylbenzoate)-]PGE2 methyl ester] |  |  |  | 16.2 ± -1.3 | -4.3 ± -0.7 | 1.08 ± -0.2 | 0.6 ± -0.2 | 1.2 ± -0.2 |  |
| CCCCC[C@H](O)/C=C/[C@H]1[C@H](O)CC(=O)[C@@H]1C/C=C\CCCC(=O)OC(C)C [PGE2 -isopropyl ester, reference compound] |  |  |  |  |  |  |  |  | Ocular irritation grade (maximum irritation) ([2]; 1 μg): 3 grade; Ocular surface hyperemia grade [8]: ≥ 2.9 grade |
| CCCCC[C@H](O)/C=C/[C@@H]1[C@@H](C/C=C\CCCC(=O)OC(C)C)[C@@H](O)C[C@H]1O [PGF2α -isopropyl ester, reference compound] |  |  |  |  |  |  |  |  | Ocular irritation grade (maximum irritation) ([2]; 1 μg): 3 grade; Ocular surface hyperemia grade [8]: ≥ 2.9 grade |
